Assay results from patent publication US20190375842A1, “CHECK POINT INHIBITION IN ORGAN FIBROSIS” (VANDERBILT UNIVERSITY, priority 2018, published 2019).

Test system: human lung fibroblasts/fibrocytes (HLF) co-cultured with sarcoidosis CD4+ T cells
Assay: CD4+ T cell and human lung fibroblast (HLF) co-culture, collagen I production by flow cytometry
Type: cell-based
Settings: after exposure to STATTIC
Experimental: The detection of increased collagen-1 production following co-culture of sarcoidosis PD-1+CD4+ cells supported an investigation of the effects of PD-1 pathway blockade on HLF collagen I production. Purified sarcoidosis CD4+ T cells at a final concentration of 2×10^6/mL were cultured overnight in the presence of α-PD-1, α-PD-L1 and α-PD-L2. HLFs were added the following day at a 1:10 ratio (HLF:T cell). […] Similar results were also observed for collagen I producing fibrocytes (CD45^+) that were cultured in the presence of sarcoidosis CD4+ T cells. There was a significant decline in collagen I production of 22% following PD-1 pathway blockade (p=0.0002) (FIG. 7E). Once again, these differences were only observed when HLF were cultured with sorted CD4+ T cells from sarcoidosis patients that had high baseline PD-1 expression on their CD4+ T cells (p=0.0002) (FIG. 7F) but not from patients with low PD-1 (p=0.10) (FIG. 7G).
LN2 frozen PBMC were thawed and readied for CD4+ T cell purification as aforementioned. 4-5×10^5 CD4+ T cells were plated on a 96-well plate at a final concentration of 2×10^6/mL in RPMI 1640-supplemented medium and then allowed to rest at 37° C. in 5% atmospheric CO2 for 2 hours prior to PD-1 pathway blockade or STATS inhibition using STATTIC. […]

For `O=[N+]([O-])c1ccc2c(c1)S(=O)(=O)C=C2` [STATTIC], which “collagen 1 production by fibrocytes” value (sarcoidosis PD-1+CD4+ T cells co-cultured with fibrocytes) is on record?
Its value is “significant reduction”.

And the “collagen 1 production by fibroblasts” value (sarcoidosis PD-1+CD4+ T cells co-cultured with human lung fibroblasts)?
The value was “significant reduction”.
